# Measurements: ChEMBL document CHEMBL5042510, “Structure-Guided Discovery of Aminoquinazolines as Brain-Penetrant and Selective LRRK2 Inhibitors” (J Med Chem, 2022)
# Tests used:
# [1] = Total plasma clearance in Wistar Han rat at 0.1 mg/kg, iv by LC-MS/MS analysis; type: ADME, organism-based
# [2] = MRT in Wistar Han rat at 0.1 mg/kg, iv by LC-MS/MS analysis; type: ADME, organism-based; conditions: in vivo
# [3] = Intrinsic clearance in human hepatocytes at 0.3 uM incubated for 90 mins by LC/MS/MS analysis; type: ADME, cell-based, Hepatocyte; conditions: read-out: CLH
# [4] = Intrinsic clearance in rat hepatocytes at 0.3 uM incubated for 90 mins by LC/MS/MS analysis; type: ADME, cell-based, Hepatocyte; conditions: read-out: CLH
# [5] = tested on: rat Mdr1a (P-gp); experiment: Apparent permeability from apical to basolateral side in rat Mdr1a-transfected pig LLC-PK1 cells at 0.1 to 1 uM measured after 3 hrs by LC/MS/MS analysis; type: ADME, cell-based, Sus scrofa; conditions: dose 0.1-1 µM
# [6] = tested on: Leucine-rich repeat serine/threonine-protein kinase 2 (Homo sapiens), Q5S007 [G2019S]; experiment: Inhibition of LRRK2 […] mutant expressed in human SH-SY5Y cells assessed as unbound concentration required for inhibition of phosphorylation of LRRK2 at Ser935 residue incubated for 90 mins by MSD assay; type: cell-based
# Sequence of Leucine-rich repeat serine/threonine-protein kinase 2 (Homo sapiens), Q5S007 [G2019S] (Q5S007 whole entry G2019S): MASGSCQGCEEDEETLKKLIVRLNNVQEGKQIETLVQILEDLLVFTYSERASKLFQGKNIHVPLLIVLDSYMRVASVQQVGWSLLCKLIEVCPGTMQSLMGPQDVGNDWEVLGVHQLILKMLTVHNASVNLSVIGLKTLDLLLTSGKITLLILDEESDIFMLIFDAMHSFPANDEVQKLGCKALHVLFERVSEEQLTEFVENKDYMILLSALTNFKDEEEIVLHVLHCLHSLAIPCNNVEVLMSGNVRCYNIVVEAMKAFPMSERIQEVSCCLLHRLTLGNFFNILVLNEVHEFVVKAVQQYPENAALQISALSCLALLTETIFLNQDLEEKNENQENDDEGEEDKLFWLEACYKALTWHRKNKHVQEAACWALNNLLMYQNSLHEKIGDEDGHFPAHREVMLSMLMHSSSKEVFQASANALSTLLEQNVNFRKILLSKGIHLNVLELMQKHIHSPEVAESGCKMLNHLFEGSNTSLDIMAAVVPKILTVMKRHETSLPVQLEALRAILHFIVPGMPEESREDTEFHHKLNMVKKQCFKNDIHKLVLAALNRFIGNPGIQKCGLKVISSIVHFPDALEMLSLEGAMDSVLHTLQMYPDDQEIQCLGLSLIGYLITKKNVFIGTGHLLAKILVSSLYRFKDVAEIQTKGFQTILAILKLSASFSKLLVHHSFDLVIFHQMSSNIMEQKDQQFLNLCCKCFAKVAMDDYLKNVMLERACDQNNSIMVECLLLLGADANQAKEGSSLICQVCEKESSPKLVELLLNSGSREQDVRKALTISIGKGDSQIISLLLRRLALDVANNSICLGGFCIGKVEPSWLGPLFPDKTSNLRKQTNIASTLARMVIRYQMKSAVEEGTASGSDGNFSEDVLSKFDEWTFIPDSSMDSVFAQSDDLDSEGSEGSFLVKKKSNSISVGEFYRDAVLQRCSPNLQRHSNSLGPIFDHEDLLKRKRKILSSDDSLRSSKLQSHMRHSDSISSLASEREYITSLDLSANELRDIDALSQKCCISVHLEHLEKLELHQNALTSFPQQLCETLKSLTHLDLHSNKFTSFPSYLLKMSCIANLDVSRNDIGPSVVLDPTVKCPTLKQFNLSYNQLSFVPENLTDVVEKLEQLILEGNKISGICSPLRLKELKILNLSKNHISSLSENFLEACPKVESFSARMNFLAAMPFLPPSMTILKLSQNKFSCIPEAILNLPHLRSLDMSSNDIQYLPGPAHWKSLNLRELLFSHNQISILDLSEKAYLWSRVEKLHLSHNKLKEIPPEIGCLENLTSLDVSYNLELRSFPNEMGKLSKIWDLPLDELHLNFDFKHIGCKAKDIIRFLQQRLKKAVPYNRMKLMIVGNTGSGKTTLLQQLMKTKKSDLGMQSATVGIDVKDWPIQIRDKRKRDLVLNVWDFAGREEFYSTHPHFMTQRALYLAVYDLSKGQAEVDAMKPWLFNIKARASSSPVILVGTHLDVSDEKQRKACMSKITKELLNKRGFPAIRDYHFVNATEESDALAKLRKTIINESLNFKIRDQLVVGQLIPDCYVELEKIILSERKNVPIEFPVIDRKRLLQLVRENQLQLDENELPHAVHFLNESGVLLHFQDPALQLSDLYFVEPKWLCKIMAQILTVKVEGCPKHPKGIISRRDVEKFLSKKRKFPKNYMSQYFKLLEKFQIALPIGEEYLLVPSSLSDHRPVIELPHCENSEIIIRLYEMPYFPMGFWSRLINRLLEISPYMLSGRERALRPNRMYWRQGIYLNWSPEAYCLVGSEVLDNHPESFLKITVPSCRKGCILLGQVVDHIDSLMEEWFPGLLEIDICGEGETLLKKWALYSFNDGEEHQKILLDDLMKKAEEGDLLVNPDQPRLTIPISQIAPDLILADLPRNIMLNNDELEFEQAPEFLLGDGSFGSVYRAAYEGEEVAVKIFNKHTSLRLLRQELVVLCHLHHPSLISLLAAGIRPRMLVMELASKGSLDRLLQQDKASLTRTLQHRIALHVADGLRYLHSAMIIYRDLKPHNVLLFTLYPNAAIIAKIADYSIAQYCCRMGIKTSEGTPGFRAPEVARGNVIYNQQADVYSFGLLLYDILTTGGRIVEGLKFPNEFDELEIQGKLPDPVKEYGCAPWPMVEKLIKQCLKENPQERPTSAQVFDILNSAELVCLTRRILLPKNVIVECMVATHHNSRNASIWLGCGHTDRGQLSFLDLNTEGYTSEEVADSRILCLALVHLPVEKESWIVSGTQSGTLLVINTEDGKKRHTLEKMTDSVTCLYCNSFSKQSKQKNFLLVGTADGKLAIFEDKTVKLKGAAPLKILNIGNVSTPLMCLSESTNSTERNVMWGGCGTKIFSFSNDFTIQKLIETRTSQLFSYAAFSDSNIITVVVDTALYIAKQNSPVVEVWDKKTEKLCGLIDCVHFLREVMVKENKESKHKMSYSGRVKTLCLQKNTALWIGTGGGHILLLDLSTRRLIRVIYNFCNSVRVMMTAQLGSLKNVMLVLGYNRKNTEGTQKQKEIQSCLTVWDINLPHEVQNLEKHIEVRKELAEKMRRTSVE
# [7] = Intrinsic clearance in Wistar Han rat at 0.1 mg/kg, iv by LC-MS/MS analysis; type: ADME, organism-based; conditions: in vivo
# [8] = biological target: Leucine-rich repeat serine/threonine-protein kinase 2 (Homo sapiens, UniProt Q5S007, G2019S); experiment: Inhibition of recombinant N-terminal GST-fused LRRK2 […] mutant (970 to 2527 residues) (unknown origin) preincubated with enzyme for 15 mins followed by fluorescein-labeled LRRKtide peptide substrate and ATP addition for 90 mins by TR-FRET assay
# Sequence of Leucine-rich repeat serine/threonine-protein kinase 2 (Q5S007 whole entry G2019S, the tested form may be a part): as the sequence (Q5S007 whole entry G2019S) above
# [9] = tested on: rat Mdr1a (P-gp); experiment: Efflux ratio of apparent permeability across basolateral to apical side over apical to basolateral side in rat Mdr1a-transfected pig LLC-PK1 cells at 0.1 to 1 uM measured after 3 hrs by LC/MS/MS analysis; type: ADME, cell-based, Sus scrofa; conditions: dose 0.1-1 µM
# [10] = Lipophilicity, logD of the compound by HPLC analysis; type: physicochemical
# [11] = Dissociation constant, pKa of the compound; type: physicochemical
# [12] = biological target: Voltage-gated inwardly rectifying potassium channel KCNH2 (Homo sapiens, UniProt Q12809); experiment: Inhibition of human ERG by voltage clamp assay; type: toxicity
# Sequence of Voltage-gated inwardly rectifying potassium channel KCNH2 (Q12809 whole entry): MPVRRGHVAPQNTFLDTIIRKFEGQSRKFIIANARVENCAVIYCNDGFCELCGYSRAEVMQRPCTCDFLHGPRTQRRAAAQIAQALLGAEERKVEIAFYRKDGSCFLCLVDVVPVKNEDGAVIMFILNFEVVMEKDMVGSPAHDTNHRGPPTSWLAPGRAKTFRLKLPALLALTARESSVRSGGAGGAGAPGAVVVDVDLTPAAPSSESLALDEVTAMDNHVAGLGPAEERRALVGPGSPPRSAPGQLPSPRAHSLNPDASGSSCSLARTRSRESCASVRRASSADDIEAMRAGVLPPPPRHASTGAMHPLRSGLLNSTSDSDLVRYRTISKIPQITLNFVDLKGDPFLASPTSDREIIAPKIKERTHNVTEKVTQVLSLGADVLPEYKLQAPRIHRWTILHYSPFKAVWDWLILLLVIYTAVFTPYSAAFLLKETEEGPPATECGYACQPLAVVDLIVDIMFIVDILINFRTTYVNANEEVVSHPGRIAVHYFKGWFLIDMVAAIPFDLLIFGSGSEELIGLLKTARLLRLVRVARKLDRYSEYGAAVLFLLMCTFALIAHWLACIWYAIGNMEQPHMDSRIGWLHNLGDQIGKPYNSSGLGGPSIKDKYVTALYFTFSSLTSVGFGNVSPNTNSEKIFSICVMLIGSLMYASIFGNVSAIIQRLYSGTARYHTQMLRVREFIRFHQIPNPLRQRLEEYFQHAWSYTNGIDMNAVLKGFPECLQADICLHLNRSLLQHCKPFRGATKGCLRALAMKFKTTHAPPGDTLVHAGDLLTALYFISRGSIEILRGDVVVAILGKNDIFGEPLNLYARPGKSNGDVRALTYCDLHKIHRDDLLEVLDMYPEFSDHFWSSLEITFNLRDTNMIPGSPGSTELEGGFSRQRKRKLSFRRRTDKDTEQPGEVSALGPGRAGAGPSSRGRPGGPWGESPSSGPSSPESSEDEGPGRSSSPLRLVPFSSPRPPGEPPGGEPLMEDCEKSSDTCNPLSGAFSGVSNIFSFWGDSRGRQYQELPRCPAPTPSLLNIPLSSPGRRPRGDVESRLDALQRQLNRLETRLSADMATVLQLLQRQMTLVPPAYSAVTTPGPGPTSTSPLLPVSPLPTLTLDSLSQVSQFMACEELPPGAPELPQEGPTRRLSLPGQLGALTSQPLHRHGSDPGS
# [13] = biological target: Leucine-rich repeat serine/threonine-protein kinase 2 (Homo sapiens) (UniProt Q5S007); experiment: Ex vivo inhibition of LRRK2 in human PBMC assessed as unbound concentration required for reduction in LRRK2 phosphorylation at Ser935 residue incubated for 90 mins by MSD assay; type: cell-based
# Sequence of Leucine-rich repeat serine/threonine-protein kinase 2 (Homo sapiens) (Q5S007 whole entry): as the sequence (Q5S007 whole entry G2019S) above, with S2019G counted along it
# [14] = Unbound brain-to-plasma concentration ratio in rat at 2.5 uM incubated for 4 hrs by equilibrium dialysis method; type: ADME, cell-free; conditions: brain and plasma (unbound), read-out: K(p,uu,brain)
# [15] = Unbound brain-to-plasma concentration ratio in non-human primates administered orally and measured after 120 mins by LC/MS/MS analysis; type: ADME; conditions: po, read-out: K(p,uu,brain)
# [16] = tested on: human MDR1 (P-gp); experiment: Efflux ratio of apparent permeability across basolateral to apical side over apical to basolateral side in human MDR1-transfected dog MDCKII-MDR1 cells at 0.1 to 1 uM measured after 3 hrs by LC/MS/MS analysis; type: ADME, cell-based, Canis lupus familiaris; conditions: MDCK-MDR1, dose 0.1-1 µM
# [17] = MRT in Beagle dog at 2 mg/kg, iv by LC-MS/MS analysis; type: ADME, organism-based, Canis lupus familiaris; conditions: in vivo
# [18] = MRT in Wistar Han rat at 2 mg/kg, iv by LC-MS/MS analysis; type: ADME, organism-based; conditions: in vivo
# [19] = Oral bioavailability in Wistar Han rat at 10 mg/kg by LC-MS/MS analysis; type: ADME, organism-based; conditions: in vivo
# [20] = Total plasma clearance in Beagle dog at 2 mg/kg, iv by LC-MS/MS analysis; type: ADME, organism-based, Canis lupus familiaris
# [21] = Intrinsic clearance in Beagle dog at 2 mg/kg, iv by LC-MS/MS analysis; type: ADME, organism-based, Canis lupus familiaris; conditions: in vivo
# [22] = Intrinsic clearance in Wistar Han rat at 2 mg/kg, iv by LC-MS/MS analysis; type: ADME, organism-based; conditions: in vivo
# [23] = Total plasma clearance in Wistar Han rat at 2 mg/kg, iv by LC-MS/MS analysis; type: ADME, organism-based
# [24] = Intrinsic clearance in dog hepatocytes at 0.3 uM incubated for 90 mins by LC/MS/MS analysis; type: ADME, cell-based, Canis lupus familiaris, Hepatocyte; conditions: read-out: CLH
# [25] = tested on: mouse Bcrp; experiment: Efflux ratio of apparent permeability across basolateral to apical over apical to basolateral side in mouse Bcrp-transfected dog MDCK-II cells at 0.1 to 1 uM measured after 3 hrs by LC/MS/MS analysis; type: ADME, cell-based, Canis lupus familiaris; conditions: dose 0.1-1 µM
# [26] = Oral bioavailability in Beagle dog by LC-MS/MS analysis; type: ADME, organism-based, Canis lupus familiaris; conditions: in vivo
clearance [1],MRT [2],CLint scaled at 0.3 µM [3],CLint scaled at 0.3 µM [4],"Papp A→B at 3 h, up to 1 µM [5]",fIC50 [6],CL [7],IC50 [8],"efflux ratio at 3 h, up to 1 µM [9]",SMILES,IC50 [12],further results
18 mL/min/kg,1.8 h,212 mL/min/kg,336 mL/min/kg,33 ×10⁻⁶ cm/s,7.4 nM,755 mL/min/kg,< 0.6 nM,1,FC(F)Cn1ncc(Nc2ncc3cc(Cl)c(C4CCN(C5COC5)CC4F)cc3n2)c1Cl (stereo not given),,
22 mL/min/kg,1.8 h,,,,,1890 mL/min/kg,,,F[C@@H]1CNCC[C@H]1c1cc2nc(Nc3cnn([C@@H]4CC4(F)F)c3Cl)ncc2cc1Cl,570 nM,pKa [11]: 7.79; fIC50 [13]: 9 nM
42 mL/min/kg,1.1 h,63 mL/min/kg,168 mL/min/kg,33 ×10⁻⁶ cm/s,71 nM,1800 mL/min/kg,,0.9,Clc1cc2cnc(Nc3cnn(C4CC4)c3Cl)nc2cc1N1CCN(C2COC2)CC1,24000 nM,
,,,,,,,6800 nM,,Cc1c(Nc2ncc3ccc(C4CCN(C5COC5)CC4)cc3n2)cnn1C1CCOCC1,,
22 mL/min/kg,3.3 h,471 mL/min/kg,2640 mL/min/kg,,2.5 nM,2494 mL/min/kg,< 0.6 nM,,FC1CN(C2CCOC2)CCC1c1cc2nc(Nc3cnn(C4CC4(F)F)c3Cl)ncc2cc1Cl (stereo not given),35000 nM,
,,49 mL/min/kg,457 mL/min/kg,35 ×10⁻⁶ cm/s,9.9 nM,,0.65 nM,3,Cc1c(Nc2ncc3cc(Cl)c(C4CCN(C5COC5)CC4)cc3n2)cnn1C1CC1,15000 nM,"MRT [17]: 2 h; MRT [18]: 2.1 h; bioavailability [19]: 26%; clearance [20]: 23 mL/min/kg; CL [21]: 477 mL/min/kg; Kp uu at 4 h, 2.5 µM [14]: 0.2; CL [22]: 260 mL/min/kg; clearance [23]: 14 mL/min/kg; CLint scaled at 0.3 µM [24]: 294 mL/min/kg; efflux ratio at 3 h, up to 1 µM [25]: 4.2; bioavailability [26]: 38%"
,,175 mL/min/kg,329 mL/min/kg,32 ×10⁻⁶ cm/s,4.3 nM,,< 0.6 nM,1.3,FC1CN(C2COC2)CCC1c1cc2nc(Nc3cnn(C4CC4)c3Cl)ncc2cc1Cl (stereo not given),14000 nM,"MRT [18]: 3.8 h; bioavailability [19]: 54%; Kp uu at 4 h, 2.5 µM [14]: 0.5; CL [22]: 1200 mL/min/kg; clearance [23]: 18 mL/min/kg; CLint scaled at 0.3 µM [24]: 1300 mL/min/kg; efflux ratio at 3 h, up to 1 µM [25]: 1.3"
19 mL/min/kg,1.5 h,57 mL/min/kg,464 mL/min/kg,26 ×10⁻⁶ cm/s,4.8 nM,1025 mL/min/kg,< 0.6 nM,0.5,Clc1cc2cnc(Nc3cnn(C4CC4)c3Cl)nc2cc1C1CCN(C2COC2)CC1,4600 nM,"efflux ratio at 3 h, up to 1 µM [25]: 0.6"
20 mL/min/kg,2.7 h,186 mL/min/kg,210 mL/min/kg,31 ×10⁻⁶ cm/s,6.1 nM,1545 mL/min/kg,< 0.6 nM,1.2,FC1CN(C2COC2)CCC1c1cc2nc(Nc3cnn(C4CC4(F)F)c3Cl)ncc2cc1Cl (stereo not given),18300 nM,
12 mL/min/kg,4.8 h,720 mL/min/kg,956 mL/min/kg,23 ×10⁻⁶ cm/s,1.9 nM,2771 mL/min/kg,< 0.6 nM,1.6,FC1CN(C2COCC2F)CCC1c1cc2nc(Nc3cnn(C4CC4(F)F)c3Cl)ncc2cc1Cl (stereo not given),8600 nM,

# Continued, compound first:
SMILES,clearance [1],MRT [2],CLint scaled at 0.3 µM [3],CLint scaled at 0.3 µM [4],"Papp A→B at 3 h, up to 1 µM [5]",fIC50 [6],CL [7],IC50 [8],"efflux ratio at 3 h, up to 1 µM [9]",IC50 [12],further results
Cc1c(Nc2ncc3ccc(C4(C#N)CC4)cc3n2)cnn1C1CCOCC1,,,,,34 ×10⁻⁶ cm/s,19 nM,,0.7 nM,6.4,,
c1cc(C2CC2)c2nc(Nc3cnn(C4CCOCC4)c3)ncc2c1,,,,,,90 nM,,15 nM,,,
Cc1c(Nc2ncc3cccc(C4CC4)c3n2)cnn1C1CCOCC1,34 mL/min/kg,0.6 h,162 mL/min/kg,898 mL/min/kg,36 ×10⁻⁶ cm/s,31 nM,1219 mL/min/kg,1 nM,0.65,,logD [10]: 2.7
Cc1c(Nc2ncc3ccc(-c4ccn[nH]4)cc3n2)cnn1C1CCOCC1,,,,,,114 nM,,1.7 nM,,,
CNc1nc(Nc2cn(C(C)(C)C#N)nc2C)ncc1C(F)(F)F [DNL-201],,,,,,,,,,,"Kp uu at 4 h, 2.5 µM [14]: 0.6; Kp uu at 2 h [15]: 0.46; efflux ratio at 3 h, up to 1 µM [16]: 0.8"
Cc1c(Nc2ncc3ccc(N4C(=O)OC[C@@H]4C)cc3n2)cnn1C1CCOCC1,9 mL/min/kg,1.6 h,< 6 mL/min/kg,17 mL/min/kg,27 ×10⁻⁶ cm/s,3.2 nM,26 mL/min/kg,< 0.6 nM,35,,logD [10]: 1.4
CCNc1nc(Nc2cc(F)c(C(=O)N3CCOCC3)cc2OC)ncc1C(F)(F)F,,,,,,,,,,,"Kp uu at 4 h, 2.5 µM [14]: 0.5; Kp uu at 2 h [15]: 0.6; efflux ratio at 3 h, up to 1 µM [16]: 0.9"
Cc1c(Nc2ncc3ccc(C4(C#N)CC45CC5)cc3n2)cnn1C1CCOCC1 (stereo not given),,,,,34 ×10⁻⁶ cm/s,6.9 nM,,< 0.6 nM,7.2,,
N#CC1(c2ccc3cnc(Nc4cnn(C5CCOCC5)c4Cl)nc3c2)CC12CC2 (stereo not given),,,405 mL/min/kg,1960 mL/min/kg,31 ×10⁻⁶ cm/s,1.7 nM,,< 0.08 nM,0.9,,
